Test results as given in PubChem BioAssay (NCI).
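Dose response: 5 concentrations. Exposure: 48 h. Format: 96-well plates. Endpoint: linear interpolation; highest concentration if not reached. GI50: concentration for 50% inhibition of growth. TGI: concentration producing complete growth inhibition.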

Columns and labels:
Assay in all cases: NCI anticancer screen, dose series, 48 h
[1] = test system: HOP-92 NSCLC
[2] = test system: SNB-75 CNS
[3] = test system: HCC-2998 colon
[4] = test system: U251 CNS
[5] = test system: A498 renal
[6] = test system: HT29 colon
[7] = test system: SNB-19 CNS
[8] = test system: SF-268 CNS
[9] = test system: OVCAR-5 ovarian
[10] = test system: HS 578T breast

SMILES | TGI [1] | TGI [2] | TGI [3] | TGI [4] | TGI [5] | TGI [6] | TGI [7] | TGI [8] | TGI [9] | GI50 [2] | GI50 [3] | GI50 [4] | GI50 [9] | GI50 [5] | GI50 [10] | TGI [10] | GI50 [6] | GI50 [7] | GI50 [8] | GI50 [1]
O=C(NCC(=O)N1CCOC1=O)OCc1ccccc1 | > 100 µM | > 100 µM | > 100 µM | > 100 µM | > 100 µM | > 100 µM | > 100 µM | > 100 µM |  |  |  |  |  |  |  |  |  |  |  | 
Cc1cc(C)nc(NS(=O)(=O)c2ccc(NC(=O)c3cccn4c(=O)c5ccccc5nc34)cc2)n1 |  | > 100 µM | > 100 µM | > 100 µM |  | > 100 µM | > 100 µM | > 100 µM | > 100 µM |  |  |  |  |  |  |  |  |  |  | 
CCCCCCCCCCCCCP(=O)(NCC(N)=O)OCC (centres undefined) | 31.1 µM | 19.9 µM | 35.3 µM | 33 µM | 95.7 µM | 31.7 µM | 34.3 µM | 38.4 µM | 38.3 µM |  |  |  |  |  |  |  |  |  |  | 
COCCOCOC(C)(C)[C@H](CCOC(C)=O)O[Si](c1ccccc1)(c1ccccc1)C(C)(C)C | 27.9 µM | > 100 µM | 26 µM | 30.6 µM | 68.4 µM | 28.5 µM | > 100 µM | > 100 µM | > 100 µM |  |  |  |  |  |  |  |  |  |  | 
COc1cc(/C=C\c2ccncc2)cc(OC)c1OC | > 100 µM | > 100 µM |  | > 100 µM | > 100 µM | > 100 µM | > 100 µM | > 100 µM | > 100 µM |  |  |  |  |  |  |  |  |  |  | 
CCOC(=O)C1=C(C)N2C(=NC3=C(CCC/C3=C\c3ccc(Cl)cc3)C2c2ccc(Cl)cc2)S1 (centres undefined) |  | 51.3 µM | 3.19 µM | 4.06 µM | 3.09 µM | 5.92 µM | > 100 µM | 30.4 µM | > 100 µM | 9.11 µM | 1.79 µM | 1.86 µM | 20.1 µM | 1.37 µM | 5.33 µM | > 100 µM | 2.35 µM | 3.35 µM | 3.24 µM | 
CCC[CH2][Sn]([CH2]CCC)([O]C(=O)/C=C/c1ccccc1F)[O]C(=O)/C=C/c1ccccc1F | 1.37 µM | 2.06 µM | 2.29 µM | 1.41 µM | 2.29 µM | 3.07 µM | 2.07 µM | 1.84 µM | 2.83 µM | 0.692 µM | 1.06 µM | 0.511 µM | 1.5 µM | 1.09 µM |  |  | 1.58 µM | 0.788 µM | 0.526 µM | 0.415 µM
O=C1c2ccccc2C(=O)N1C1(C(=O)NC2(C(=O)O)CCCC2)CCCC1 |  | > 100 µM | > 100 µM | > 100 µM | > 100 µM | > 100 µM | > 100 µM | > 100 µM | > 100 µM |  |  |  |  |  |  | > 100 µM |  |  |  | 
COC(=O)/C(C#N)=C1\CCc2ccccc21 | > 100 µM | > 100 µM | > 100 µM |  | > 100 µM | > 100 µM | > 100 µM | > 100 µM | > 100 µM |  |  |  |  |  |  |  |  |  |  | 
COc1ccc(-c2ccc(/C=N/n3c(COc4ccccc4Cl)n[nH]c3=S)o2)c([N+](=O)[O-])c1 |  | > 100 µM |  | 57.5 µM | 40.6 µM | > 100 µM | > 100 µM | 91.7 µM | > 100 µM | > 100 µM |  | 22 µM | 44.9 µM | 14.4 µM | 32.5 µM | 98.7 µM | 41.1 µM | 42.2 µM | 32.3 µM | 
COc1ccc(Oc2ccccc2NC(=O)CNC(=O)c2cccc3ccccc23)cc1 | > 25 µM |  | > 25 µM | > 25 µM | 10.4 µM | 19.4 µM | > 25 µM | > 25 µM | > 25 µM |  | 1.41 µM | 1.06 µM | 1.98 µM | 0.564 µM | 1.71 µM | > 25 µM | 0.576 µM | 1.24 µM | 2.03 µM | > 25 µM
O=C(CCc1nc(=S)[nH][nH]1)Nc1cccc(C(F)(F)F)c1 | > 100 µM | > 100 µM | > 100 µM | > 100 µM | > 100 µM | > 100 µM | > 100 µM | > 100 µM | > 100 µM |  |  |  |  |  |  |  |  |  |  | 
O=C(O)[C@@H](NS(=O)(=O)c1ccc2ccccc2c1)c1ccccc1 | > 100 µM | > 100 µM | > 100 µM | > 100 µM | > 100 µM | > 100 µM | > 100 µM | > 100 µM | > 100 µM |  |  |  |  |  |  |  |  |  |  | 
CCC1C(=O)OCc2c1cc1n(c2=O)C(CC)c2c-1nc1ccccc1c2Cl (centres undefined) | > 100 µM |  |  | 49.4 µM | 58.1 µM | 77.1 µM | > 100 µM | > 100 µM | 54.6 µM |  |  |  |  |  |  |  |  |  |  | 
N/C(=N\c1nc2ccccc2s1)NC(=NC1CCCCC1)NC1CCCCC1 |  | 2.62 µM | 2.98 µM | 3.48 µM | 3.11 µM | 3.66 µM | 3.02 µM | 3.65 µM | 3.07 µM | 1.33 µM | 1.58 µM | 1.68 µM | 1.62 µM | 1.71 µM | 1.77 µM | 3.89 µM | 1.63 µM | 1.59 µM | 1.81 µM | 
Nc1ncnc2c1nnn2C1C=C(CO)C(O)C1O (centres undefined) | > 80.2 µM | > 96.1 µM | > 100 µM | > 100 µM | > 100 µM | > 100 µM | > 100 µM | > 100 µM | > 100 µM |  |  |  |  |  |  |  |  |  |  | 
COc1ccc2c(c1)C(=O)c1c-2c(N2CCNCC2)nc2ccccc12 |  | 26.5 µM |  | 16.6 µM | 21.1 µM | 3.34 µM | 20.7 µM | 11.9 µM | 30.2 µM | 10.9 µM |  | 4.6 µM | 14.4 µM | 7.4 µM | 5.15 µM | 20.9 µM | 1.49 µM | 5.44 µM | 2.14 µM | 
CN1CCN(c2cc3nc4ccccc4n(-c4ccc(Cl)cc4)c-3cc2=N)CC1 | 94.8 µM |  | 54.9 µM | 49.7 µM | > 100 µM | > 100 µM | > 100 µM | > 100 µM | 60.8 µM |  | 23.1 µM | 18.9 µM | 24.1 µM | > 100 µM | 20.7 µM | 95.7 µM | > 100 µM | > 100 µM | 32.1 µM | 28.7 µM
